In patent US6514997B2, “Antipicornaviral compounds and compositions, their pharmaceutical uses, and materials for their synthesis” (Agouron Pharmaceuticals, Inc., priority 1999, dated 2003):
Read-outs that look alike come from different tables or passages of the source.

Columns and labels:
[1] = test system: Coxsackievirus type B3 (CVB3); test: Anticoxsackieviral cell culture assay (XTT, EC50), CVB3; format: cell-based, coxsackievirus B3 in H1-HeLa cells; settings: CVB3; read-out: EC50
Protocol: (§1) Anticoxsackieviral Cell Culture Assay:
(§2) Coxsackievirus types A-21 (CAV-21) and B3 (CVB3) were purchased from American Type Culture Collection (ATCC, Rockville, Md.). Virus stocks were propagated and antiviral assays were performed in H1-HeLa cells (ATCC). Cells were grown in minimal essential medium with 10% fetal bovine serum (Life Technologies, Gaithersburg, Md.). The ability of the compounds of this invention to protect cells against either CAV-21 or CVB3 infection was measured by the XTT dye reduction method. This method is described in Weislow et al., J. Natl. Cancer Inst. (1989), vol. 81, 577-586. H1-HeLa cells were infected with CAV-21 or CVB3 at a multiplicity of infection (m.o.i.) of 0.025 or 0.075, respectively, or mock-infected with medium only. H1-HeLa cells were plated at 4×10^4 cells per well in a 96-well plate and incubated with appropriate concentrations of the test compound. One day (CVB3) or two days (CAV-21) later, XTT/PMS was added to test plates and the amount of formazan produced was quantified spectrophotometrically at 450/650 nm. […] The therapeutic index (TI) was calculated by dividing the CC50 by the EC50.

[2] = target: T1, Recombinant rhinovirus 3C protease, serotype 14 (Human rhinovirus 14, UniProt P03303); test: Inhibition of rhinovirus 3C protease (FRET assay, kobs/[I]), serotype 14; format: biochemical; settings: pH 7.6, read-out: kobs/[I] (3C protease inhibition activity)
T1 construct: Recombinant rhinovirus 3C proteases; made in house
T1 sequence (P03303 1538-1719): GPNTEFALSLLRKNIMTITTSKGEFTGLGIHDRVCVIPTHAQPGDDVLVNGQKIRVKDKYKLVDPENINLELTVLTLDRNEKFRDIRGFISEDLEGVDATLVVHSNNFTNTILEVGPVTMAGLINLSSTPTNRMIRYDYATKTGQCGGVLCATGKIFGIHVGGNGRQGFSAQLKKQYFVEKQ
Method in brief: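 Enzyme-start FRET assay with ~1 μM DABCYL/EDANS peptide substrate and 50-100 nM recombinant protease in 50 mM tris pH 7.6, 1 mM EDTA, 2% DMSO. Cleavage followed as fluorescence increase; kobs/[I] derived from progress curves.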

[3] = Cytotoxicity (CC50) in uninfected MRC-5 cells, XTT dye reduction; format: cell-based, human; settings: human, MRC-5 cells, uninfected (mock-infected); line of ECHO-11
Protocol: (§3) Echovirus type 11 (ECHO 11) was purchased from ATCC (Rockville, Md.). Virus stocks were propagated and antiviral assays were performed in MRC-5 cells (ATCC). Cells were grown in minimal essential medium with 10% fetal bovine serum (Life Technologies, Gaithersburg, Md.). The ability of the compounds of this invention to protect cells against ECHO 11 infection was measured by the XTT dye reduction method (Weislow et al., J. Natl. Cancer Inst. (1989), vol. 81, 577-586). MRC-5 cells were infected with ECHO 11 at an m.o.i. of 0.003 or 0.004, respectively, or mock-infected with medium only. Infected or uninfected cells were added at 1×10^4 cells per well and incubated with appropriate concentrations of compound. Four days later, XTT/PMS was added to test plates, and the amount of formazan produced was quantified spectrophotometrically at 450/650 nm. […] The therapeutic index (TI) was calculated by dividing the CC50 by the EC50. Activity of the compounds against enterovirus type 70 (EV 70) may be measured by the same assay as described above in this section. Enterovirus type 70 (EV 70) may be obtained from the American Type Culture Collection ATCC (Rockville, Md.).

[4] = test system: MRC-5 cells; test: as above; format: cell-based, human; settings: line of ENT-70
Protocol: as §3

[5] = Cytotoxicity (CC50) in mock-infected H1-HeLa cells, XTT dye reduction; format: cell-based, human; settings: human, H1-HeLa cells; for CC50 at 1 day: line of CVB3
Method in brief: (§4)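 H1-HeLa cells mock-infected, read by XTT/PMS formazan at 450/650 nm.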

[6] = test system: enterovirus type 70 (EV 70); test: Anti-enteroviral cell culture assay (XTT, EC50), EV 70; format: cell-based, enterovirus 70 in MRC-5 cells; settings: Enterovirus D; ENT-70
Protocol: (§5) Anti-Echoviral and Anti-Enteroviral Cell Culture Assays
as §3

[7] = test system: Echovirus type 11 (ECHO 11); test: Anti-echoviral cell culture assay (XTT, EC50), ECHO 11; format: cell-based, echovirus 11 in MRC-5 cells; settings: Enterovirus B; ECHO-11; read-out: EC50
Protocol: as §5, §3

[8] = test system: HRV-14; test: Antirhinoviral H1-HeLa cell culture assay (XTT cell protection, EC50), HRV-14; format: cell-based, human rhinovirus (HRV) serotype-14 in H1-HeLa cells; settings: Rhinovirus B, HRV14, H1-HeLa
Method in brief: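 H1-HeLa cells were infected with HRV-14 at m.o.i. 0.13, or mock-infected, and incubated with compound for two days. Cell protection was read by XTT/PMS formazan absorbance at 450/650 nm to give EC50. CC50 came from mock-infected cells, and TI = CC50/EC50.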

[9] = test system: Coxsackievirus type A-21 (CAV-21); test: Anticoxsackieviral cell culture assay (XTT, EC50), CAV-21; format: cell-based, coxsackievirus A-21 in H1-HeLa cells; settings: Coxsackievirus; CAV-21; read-out: EC50
Protocol: as §1, §2

[10] = Cytotoxicity (CC50), cell line not stated; format: cell-based
[11] = test system: H1-HeLa cells; test: Cytotoxicity (CC50) in mock-infected H1-HeLa cells, XTT dye reduction; format: cell-based, human
Method in brief: as §4

[12] = test system: echovirus 9 (ECHO-9); test: Antiviral cell culture assay (EC50), echovirus 9; format: cell-based; settings: Enterovirus B; ECHO9
[13] = test system: strains of human rhinovirus (HRV); test: Antirhinoviral H1-HeLa cell culture assay (XTT cell protection, EC50), other HRV strains; format: cell-based, human rhinovirus in H1-HeLa cells; settings: read-out: EC50
Method in brief: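 H1-HeLa cells infected, or mock-infected, were incubated with compounds for two days. Cell protection measured by XTT/PMS formazan absorbance at 450/650 nm; TI taken as CC50 divided by EC50.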

[14] = test system: coxsackievirus B2 (CVB2); test: Antiviral cell culture assay (EC50), coxsackievirus B2; format: cell-based; settings: Enterovirus B
[15] = test system: coxsackievirus B5 (CVB5); test: Antiviral cell culture assay (EC50), coxsackievirus B5; format: cell-based; settings: Enterovirus B
[16] = uninfected (mock-infected), line of CAV-21

**Q.** What does the source list for `CCOC(=O)/C=C/[C@H](CCC(N)=O)NC(=O)[C@H](Cc1ccccc1)n1cccc(NC(=O)OCc2ccccc2)c1=O` [Compound 1, trans-(2′S,4S)-4-[2′-(3″-Benzyloxycarbonylamino-2″-oxo-2″H-pyridin-1″-yl)-3′-phenylpropionylamino]-6-carbamoylhex-2-enoic Acid Ethyl Ester]?
**A.** EC50 [1]: 539 nM; kinact/KI ([2]; HRV-14): 114000 M⁻¹ s⁻¹; CC50 at 4 days [3]: > 10 µM; CC50 [4]: > 10 µM; CC50 at 2 days ([5]; mock-infected, line of HRV-14): 50.1 µM; CC50 at 2 days [5, 16]: > 10 µM; CC50 at 1 day ([5]; uninfected (mock-infected)): > 10 µM; EC50 [6]: 12 nM; EC50 [7]: 160 nM; EC50 ([8]; HRV-14, read-out: EC50): 33 nM; EC50 [9]: 1480 nM

**Q.** Which EC50 [1] does the source give for `CCOC(=O)/C=C\[C@H](CCC(N)=O)NC(=O)[C@H](Cc1ccccc1)n1cccc(NC(=O)c2cc(C)on2)c1=O` [Compound 5, trans-(2′S,4S)-6-Carbamoyl-4-(2′-{3″-[(5′″-methylisoxazole-3′″-carbonyl)amino]-2″-oxo-2″H-pyridin-1″-yl}-3′-phenylpropionylamino)hex-2-enoic Acid Ethyl Ester] here?
**A.** 577 nM

**Q.** And the kinact/KI ([2]; HRV-14)?
**A.** 329000 M⁻¹ s⁻¹

**Q.** And the CC50 at 4 days [3]?
**A.** > 10 µM

**Q.** What about the CC50 [4] of the same compound?
**A.** > 10 µM

**Q.** What about the CC50 at 2 days ([5]; mock-infected, line of HRV-14) of the same compound?
**A.** > 10 µM

**Q.** And the CC50 at 2 days [5, 16]?
**A.** > 10 µM

**Q.** What about the CC50 at 1 day ([5]; uninfected (mock-infected)) of the same compound?
**A.** > 10 µM

**Q.** And the EC50 [6]?
**A.** 18 nM

**Q.** And the EC50 [7]?
**A.** 54 nM

**Q.** What about the EC50 ([8]; HRV-14, read-out: EC50) of the same compound?
**A.** 16 nM

**Q.** And the EC50 [9]?
**A.** 1390 nM

**Q.** Which EC50 [1] does the source give for `CCOC(=O)/C=C/[C@H](CCC(N)=O)NC(=O)[C@H](Cc1ccccc1)n1cccc(NC(=O)C2CCCC2)c1=O` [Compound 6, trans-(2′S,4S)-6-Carbamoyl-4-{2′-[3″-cyclopentanecarbonylamino-2″-oxo-2″H-pyridin-1″-yl]-3′-phenylpropionylamino}hex-2-enoic Acid Ethyl Ester] here?
**A.** 2500 nM

**Q.** What about the kinact/KI ([2]; HRV-14) of the same compound?
**A.** 37400 M⁻¹ s⁻¹

**Q.** What about the CC50 at 4 days [3] of the same compound?
**A.** > 10 µM

**Q.** What about the CC50 [4] of the same compound?
**A.** > 10 µM

**Q.** And the CC50 at 2 days ([5]; mock-infected, line of HRV-14)?
**A.** > 10 µM

**Q.** What about the CC50 at 2 days [5, 16] of the same compound?
**A.** > 10 µM

**Q.** What about the CC50 at 1 day ([5]; uninfected (mock-infected)) of the same compound?
**A.** > 10 µM

**Q.** What about the EC50 [6] of the same compound?
**A.** 61 nM

**Q.** And the EC50 [7]?
**A.** 346 nM

**Q.** And the EC50 ([8]; HRV-14, read-out: EC50)?
**A.** 34 nM

**Q.** And the EC50 [9]?
**A.** 4680 nM

**Q.** What does the source list for `CC[C@@H](C(=O)N[C@H](/C=C/C(=O)OC1CCC1)C[C@@H]1CCNC1=O)n1cccc(NC(=O)c2cc(C)on2)c1=O` [Compound 59, trans-(2′S,3′″″S,4S)-4-[2′-(3″-{[1′″-(5″″-Methylisoxazol-3″″-yl)methanoyl]amino}-2′″oxo-2′″H-pyridin-1′″-yl)butanoylamino]-5-(2′″″-oxopyrrolidin-3′″″-yl)pent-2-enoic Acid Cyclobutyl Ester]?
**A.** CC50 ([10]; CVB2): > 10 µM; CC50 ([10]; CVB5): > 10 µM; CC50 ([10]; ECHO9): > 10 µM; kinact/KI ([2]; HRV-14 3C protease): 170000 M⁻¹ s⁻¹; CC50 ([11]; HRV-1A): > 10 µM; CC50 ([11]; HRV-2): > 10 µM; CC50 ([11]; HRV-3): > 10 µM; CC50 ([11]; HRV-9): > 10 µM; CC50 ([11]; HRV-10): > 10 µM; CC50 ([11]; HRV-11): > 10 µM; CC50 ([11]; HRV-13): > 10 µM; CC50 ([11]; HRV-16): > 10 µM; CC50 ([11]; HRV-19): > 10 µM; CC50 ([11]; HRV-23): > 10 µM; CC50 ([11]; HRV-25): > 10 µM; CC50 ([11]; HRV-39): > 10 µM; CC50 ([11]; HRV-78): > 10 µM; CC50 ([11]; HRV-Hanks): > 10 µM; CC50 at 2 days ([5]; mock-infected, HRV-14): > 10 µM; EC50 [12]: 40 nM; EC50 ([13]; H1-HeLa, HRV-1A): 84 nM; EC50 ([13]; H1-HeLa, HRV-2): 49 nM; EC50 ([13]; H1-HeLa, HRV-23): 37 nM; EC50 ([13]; Human rhinovirus sp., H1-HeLa, HRV-Hanks): 83 nM; EC50 ([13]; Human rhinovirus sp., HRV3, H1-HeLa, HRV-3): 33 nM; EC50 ([13]; Human rhinovirus sp., HRV9, H1-HeLa, HRV-9): 70 nM; EC50 ([13]; Human rhinovirus sp., HRV10, H1-HeLa, HRV-10): 58 nM; EC50 ([13]; Human rhinovirus sp., HRV11, H1-HeLa, HRV-11): 14 nM; EC50 ([13]; Human rhinovirus sp., HRV13, H1-HeLa, HRV-13): 12 nM; EC50 ([13]; Human rhinovirus sp., HRV16, H1-HeLa, HRV-16): 105 nM; EC50 ([13]; Human rhinovirus sp., HRV19, H1-HeLa, HRV-19): 44 nM; EC50 ([13]; Human rhinovirus sp., HRV25, H1-HeLa, HRV-25): 42 nM; EC50 ([13]; Human rhinovirus sp., HRV39, H1-HeLa, HRV-39): 122 nM; EC50 ([13]; Human rhinovirus sp., HRV78, H1-HeLa, HRV-78): 73 nM; EC50 [8]: 20 nM; EC50 [14]: 50 nM; EC50 [15]: 40 nM
